The values below come from patent US20240116985A1, “STAPLED PEPTIDES AND METHODS THEREOF” (priority 2020, published 2024).

Data set [1] concerns the target T1, full-length beta-Catenin (Uniprot ID P35222) (Homo sapiens, UniProt P35222).
T1 construct: 10 nM full-length beta-Catenin (Uniprot ID P35222)
T1 sequence (P35222 1-781): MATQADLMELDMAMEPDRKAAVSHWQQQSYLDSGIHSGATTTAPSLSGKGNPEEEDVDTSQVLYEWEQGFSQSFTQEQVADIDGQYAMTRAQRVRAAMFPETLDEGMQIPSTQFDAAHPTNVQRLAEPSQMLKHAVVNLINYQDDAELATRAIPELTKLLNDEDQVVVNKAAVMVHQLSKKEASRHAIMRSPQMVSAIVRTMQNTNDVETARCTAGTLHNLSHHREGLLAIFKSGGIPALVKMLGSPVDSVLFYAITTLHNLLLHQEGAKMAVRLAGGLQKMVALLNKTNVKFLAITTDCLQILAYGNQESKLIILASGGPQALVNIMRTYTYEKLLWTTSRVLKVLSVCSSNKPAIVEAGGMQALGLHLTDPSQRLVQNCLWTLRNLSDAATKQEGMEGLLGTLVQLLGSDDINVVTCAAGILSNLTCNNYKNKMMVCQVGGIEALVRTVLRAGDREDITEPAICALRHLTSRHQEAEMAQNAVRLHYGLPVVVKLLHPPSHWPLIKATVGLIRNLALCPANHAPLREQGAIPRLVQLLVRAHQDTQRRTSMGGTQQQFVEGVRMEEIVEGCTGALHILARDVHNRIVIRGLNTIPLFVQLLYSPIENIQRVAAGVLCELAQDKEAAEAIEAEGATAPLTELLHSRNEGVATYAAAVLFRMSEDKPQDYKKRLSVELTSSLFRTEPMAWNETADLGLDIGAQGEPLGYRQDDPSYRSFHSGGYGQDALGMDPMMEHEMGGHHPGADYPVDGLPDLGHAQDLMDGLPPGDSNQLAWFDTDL
In words: Fluorescence polarization IC50 (beta-catenin / 5FAM-TCF4 10-53 competition). Format: binding. Conditions: fluorescence polarization; read-out: beta-Catenin FP IC50.

The nature of a further data set: Solubility in PBS. Format: physicochemical. The method in brief: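 Steps: ultracentrifuge the peptide PBS solution, inject the supernatant on HPLC, inject a 50 μM peptide DMSO solution as reference, then calculate solubility as area ratio (PBS/DMSO) × 50 uM.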

In brackets after ≈: the same amount, converted by molar mass. Like-named read-outs stand apart in the source and are kept apart here.

As to `CC(=O)N1CCC[C@]12CC=CCCCC1(CCCC=CCCCCCC[C@@](C)(C(=O)N[C@@H](Cc3ccccc3Cl)C(=O)N[C@@H](Cc3csc4ccccc34)C(=O)N[C@@H](CO)C(N)=O)NC(=O)[C@H](CC(C)C)NC(=O)[C@H](Cc3ccccc3)NC(=O)[C@H](C)NC(=O)[C@H](C)NC(=O)[C@H](CC(=O)O)NC(=O)[C@H](CC(=O)O)NC1=O)NC(=O)[C@H](CC(C)(C)C)NC(=O)[C@H](CC(=O)O)NC2=O` (stereo partly drawn) [I-1189, Ac-PL3-Asp-Npg-B5-Asp-Asp-Ala-Ala-Phe-Leu-S8-2C1F-BztA-Ser-NH2], in data set [1], the IC50 is 94.5 nM. In addition, in “Solubility in PBS”, the “Solubility” value amounted to 10 µM (≈ 18.6 µg/mL).
Consider `CC(=O)N1CCC[C@]12CC=CCCCC1(CCCC=CCCCCCC[C@@](C)(C(=O)N[C@@H](Cc3ccsc3)C(=O)N[C@@H](Cc3csc4ccccc34)C(=O)N[C@@H](CO)C(N)=O)NC(=O)[C@H](CC(C)C)NC(=O)[C@H](Cc3ccccc3)NC(=O)[C@H](C)NC(=O)[C@H](C)NC(=O)[C@H](CC(=O)O)NC(=O)[C@H](CC(=O)O)NC1=O)NC(=O)[C@H](CC(C)(C)C)NC(=O)[C@H](CC(=O)O)NC2=O` (stereo partly drawn) [I-1190, Ac-PL3-Asp-Npg-B5-Asp-Asp-Ala-Ala-Phe-Leu-S8-3Thi-BztA-Ser-NH2], for which the IC50 in data set [1] came to 58.5 nM. Moreover, the “Solubility” value in the data set “Solubility in PBS” was 10 µM (≈ 18.3 µg/mL).
On to `CC(=O)N1CCC[C@]12CC=CCCCC1(CCCC=CCCCCCC[C@@](C)(C(=O)N[C@@H](Cc3ccsc3)C(=O)N[C@@H](Cc3csc4ccccc34)C(=O)N[C@H](C(N)=O)[C@@H](C)O)NC(=O)[C@H](CC(C)C)NC(=O)[C@H](Cc3ccccc3)NC(=O)[C@H](C)NC(=O)[C@H](C)NC(=O)[C@H](CC(=O)O)NC(=O)[C@H](CC(=O)O)NC1=O)NC(=O)[C@H](CC(C)(C)C)NC(=O)[C@H](CC(=O)O)NC2=O` (stereo partly drawn) [I-1191, Ac-PL3-Asp-Npg-B5-Asp-Asp-Ala-Ala-Phe-Leu-S8-3Thi-BztA-Thr-NH2], for which the IC50 in data set [1] is 38.5 nM. Also, the “Solubility” value in “Solubility in PBS” turned out to be 10 µM (≈ 18.5 µg/mL).
For `CC(=O)N1CCC[C@]12CC=CCCCC1(CCCC=CCCCCCC[C@@](C)(C(=O)N[C@@H](Cc3ccccc3Cl)C(=O)N[C@@H](Cc3csc4ccccc34)C(=O)N[C@@H](Cc3c[nH]nn3)C(N)=O)NC(=O)[C@H](CC(C)C)NC(=O)[C@H](Cc3ccccc3)NC(=O)[C@H](C)NC(=O)[C@H](C)NC(=O)[C@H](CC(=O)O)NC(=O)[C@H](CC(=O)O)NC1=O)NC(=O)[C@H](CC(C)(C)C)NC(=O)[C@H](CC(=O)O)NC2=O` (stereo partly drawn) [I-1192, Ac-PL3-Asp-Npg-B5-Asp-Asp-Ala-Ala-Phe-Leu-S8-2C1F-BztA-4TriA-NH2], in that order: 81.5 nM and 10 µM (≈ 19.1 µg/mL).
Consider `CC(=O)N1CCC[C@]12CC=CCCCC1(CCCC=CCCCCCC[C@@](C)(C(=O)N[C@@H](Cc3ccsc3)C(=O)N[C@@H](Cc3csc4ccccc34)C(=O)N[C@@H](Cc3c[nH]nn3)C(N)=O)NC(=O)[C@H](CC(C)C)NC(=O)[C@H](Cc3ccccc3)NC(=O)[C@H](C)NC(=O)[C@H](C)NC(=O)[C@H](CC(=O)O)NC(=O)[C@H](CC(=O)O)NC1=O)NC(=O)[C@H](CC(C)(C)C)NC(=O)[C@H](CC(=O)O)NC2=O` (stereo partly drawn) [I-1193, Ac-PL3-Asp-Npg-B5-Asp-Asp-Ala-Ala-Phe-Leu-S8-3Thi-BztA-4TriA-NH2], for which the IC50 in data set [1] was 78.5 nM. In addition, the “Solubility” value in “Solubility in PBS” is 10 µM (≈ 18.8 µg/mL).
As to `CC(=O)N1CCC[C@]12CC=CCCCC1(CCCC=CCCCCCC[C@@](C)(C(=O)N[C@@H](Cc3ccccc3Cl)C(=O)N[C@@H](Cc3csc4ccccc34)C(=O)N[C@@H](Cc3c[nH]cn3)C(N)=O)NC(=O)[C@H](CC(C)C)NC(=O)[C@H](Cc3ccccc3)NC(=O)[C@H](C)NC(=O)[C@H](C)NC(=O)[C@H](CC(=O)O)NC(=O)[C@H](CC(=O)O)NC1=O)NC(=O)[C@H](CC(C)(C)C)NC(=O)[C@H](CC(=O)O)NC2=O` (stereo partly drawn) [I-1194, Ac-PL3-Asp-Npg-B5-Asp-Asp-Ala-Ala-Phe-Leu-S8-2C1F-BztA-His-NH2], the IC50 in data set [1] is 66.5 nM. Besides, the “Solubility” value in the data set “Solubility in PBS” amounted to 10 µM (≈ 19.1 µg/mL).
On to `CC(=O)N1CCC[C@]12CC=CCCCC1(CCCC=CCCCCCC[C@@](C)(C(=O)N[C@@H](Cc3ccccc3Cl)C(=O)N[C@@H](Cc3csc4ccccc34)C(=O)N[C@@H](CCO)C(N)=O)NC(=O)[C@H](CC(C)C)NC(=O)[C@H](Cc3ccccc3)NC(=O)[C@H](C)NC(=O)[C@H](C)NC(=O)[C@H](CC(=O)O)NC(=O)[C@H](CC(=O)O)NC1=O)NC(=O)[C@H](CC(C)(C)C)NC(=O)[C@H](CC(=O)O)NC2=O` (stereo partly drawn) [I-1196, Ac-PL3-Asp-Npg-B5-Asp-Asp-Ala-Ala-Phe-Leu-S8-2C1F-BztA-Hse-NH2], for which, in data set [1], the IC50 is 85 nM. In addition, the “Solubility” value in “Solubility in PBS” was determined as 10 µM (≈ 18.8 µg/mL).
As to `CC(=O)N1CCC[C@]12CC=CCCCC1(CCCC=CCCCCCC[C@@](C)(C(=O)N[C@@H](Cc3ccsc3)C(=O)N[C@@H](Cc3csc4ccccc34)C(=O)N[C@@H](CCO)C(N)=O)NC(=O)[C@H](CC(C)C)NC(=O)[C@H](Cc3ccccc3)NC(=O)[C@H](C)NC(=O)[C@H](C)NC(=O)[C@H](CC(=O)O)NC(=O)[C@H](CC(=O)O)NC1=O)NC(=O)[C@H](CC(C)(C)C)NC(=O)[C@H](CC(=O)O)NC2=O` (stereo partly drawn) [I-1197, Ac-PL3-Asp-Npg-B5-Asp-Asp-Ala-Ala-Phe-Leu-S8-3Thi-BztA-Hse-NH2], the IC50 in data set [1] was found to be 44 nM. The “Solubility” value in “Solubility in PBS” was 10 µM (≈ 18.5 µg/mL).
In the case of `CC(=O)N1CCC[C@]12CC=CCCCC1(CCCC=CCCCCCC[C@@](C)(C(=O)N[C@@H](Cc3ccccc3Cl)C(=O)N[C@@H](Cc3csc4ccccc34)C(=O)N[C@H](CCC(N)=O)C(N)=O)NC(=O)[C@H](CC(C)C)NC(=O)[C@H](Cc3ccccc3)NC(=O)[C@H](C)NC(=O)[C@H](C)NC(=O)[C@H](CC(=O)O)NC(=O)[C@H](CC(=O)O)NC1=O)NC(=O)[C@H](CC(C)(C)C)NC(=O)[C@H](CC(=O)O)NC2=O` (stereo partly drawn) [I-1198, Ac-PL3-Asp-Npg-B5-Asp-Asp-Ala-Ala-Phe-Leu-S8-2C1F-BztA-dGln-NH2], the IC50 in data set [1] is 65 nM. The molecule further gave a Solubility in “Solubility in PBS” (Solubility (uM)) of 47 µM (≈ 89.4 µg/mL).
`CC(=O)N1CCC[C@]12CC=CCCCC1(CCCC=CCCCCCC[C@@](C)(C(=O)N[C@@H](Cc3ccsc3)C(=O)N[C@@H](Cc3csc4ccccc34)C(=O)N[C@H](CCC(N)=O)C(N)=O)NC(=O)[C@H](CC(C)C)NC(=O)[C@H](Cc3ccccc3)NC(=O)[C@H](C)NC(=O)[C@H](C)NC(=O)[C@H](CC(=O)O)NC(=O)[C@H](CC(=O)O)NC1=O)NC(=O)[C@H](CC(C)(C)C)NC(=O)[C@H](CC(=O)O)NC2=O` (stereo partly drawn) [I-1199, Ac-PL3-Asp-Npg-B5-Asp-Asp-Ala-Ala-Phe-Leu-S8-3Thi-BztA-dGln-NH2]: the IC50 in data set [1] came out at 44.5 nM. Moreover, in “Solubility in PBS” (Solubility (uM)), the Solubility stood at 19 µM (≈ 35.6 µg/mL).
Take `CC(=O)N1CCC[C@]12CC=CCCCC1(CCCC=CCCCOC(=O)N3CC[C@@](C(=O)N[C@@H](Cc4cccc(C#N)c4)C(=O)N[C@@H](Cc4csc5ccccc45)C(=O)N[C@@H](CCC(N)=O)C(N)=O)(C3)NC(=O)[C@H](CC(C)C)NC(=O)[C@H](Cc3ccccc3)NC(=O)[C@H](C)NC(=O)[C@H](C)NC(=O)[C@H](CC(=O)O)NC(=O)[C@H](CC(=O)O)NC1=O)NC(=O)[C@H](CC(C)(C)C)NC(=O)[C@H](CC(=O)O)NC2=O` (stereo partly drawn) [I-1204, Ac-PL3-Asp-Npg-B5-Asp-Asp-Ala-Ala-Phe-Leu-PyrS2-3CNF-BztA-Gln-NH2]: the IC50 in data set [1] came to 81 nM. For the same molecule, in the data set “Solubility in PBS”, the “Solubility” value is 50 µM (≈ 96.8 µg/mL).
